From patent publication US20080081823A1, “PIPECOLIC ACID-CONTAINING ANTIDIABETIC COMPOSITIONS” (Ajinomoto Co., Inc., priority 2006, published 2008)

What was measured:
[1] = system: model mice with Type II diabetes; experiment: Measurement of lipids in the blood of model mice with Type II diabetes; type: in vivo, Male KK-Ay mice; conditions: KK-Ay mice, feed adding 1.6% for 5 weeks, fasting, average value
Method: (§1) (a) It was examined whether D,L pipecolic acid has an effect on blood and liver lipids of model mice with Type II diabetes.
(§2) (b) Male KK-Ay mice of 6 weeks old were used to start the experiment.
(c) 16 KK-Ay mice were divided into 2 groups based on their body weights. Feeds wherein 0 or 1.6% D,L pipecolic acid was added were provided to each group for 5 weeks. At the fifth week, they were fasted, and their blood was collected and their livers were extracted to measure their fasting blood triglyceride, fasting blood total cholesterol, fasting free fatty acids in the blood, total lipids in the liver, liver triglyceride and liver total cholesterol. […]
(c) Farming mice: 16 (2 experimental sections×8) male KK-Ay mice of 4 weeks old were purchased from Clea Japan, Inc. and each was separately farmed in an animal room in a light-dark cycle of 12 hours (7:00 to 19:00) at room temperature of 25° C. […] Every Mondays, Wednesdays and Fridays during the period, their body weights and amounts of food ingested were measured, and the feeds were added. […] The fasting blood triglyceride, fasting blood total cholesterol, fasting free fatty acids in the blood, total lipids in the liver, liver triglyceride and liver total cholesterol were measured by using those samples. […]

[2] = system: model mice with Type II diabetes; experiment: Insulin tolerance test in model mice with Type II diabetes; type: in vivo, Male KK-Ay mice; conditions: KK-Ay mice, feed adding 0.8%, ninth week, insulin 0.5 U/kg subcutaneous, compared with additive-free group
Method: (§3) (c) 24 KK-Ay mice were divided into 3 groups based on their body weights, and the blood glucose levels and transitions of the blood insulin concentrations when injected glucose. Feeds adding 0, 0.4 or 0.8% D,L pipecolic acid were provided to each group for 10 weeks. At the second and eighth weeks after starting the test, their blood glucose levels and blood insulin concentrations after oral injection of glucose were measured. At the ninth week, the insulin tolerance test was conducted, and at the tenth week, autopsy was conducted to the samples to measure weights of epididymal fats and perinephric fats.
(§4) (c) Farming mice: 24 male KK-Ay mice of 5 weeks old were purchased from Clea Japan, Inc. and each was separately farmed in an animal room in a light-dark cycle of 12 hours (7:00 to 19:00) at room temperature of 25° C. Then, KK-Ay mice were divided into 3 groups based on their blood glucose levels and blood insulin concentrations measured when giving glucose. […] At the second and eighth weeks, the oral glucose tolerance test was conducted, and their blood glucoses and blood insulin concentrations after oral injection of glucose were measured. […] Then, at the tenth week, autopsy was conducted to the samples, and weights of epididymal fats and perinephric fats were measured to see effects of pipecolic acid on weights of visceral fats. […]

obese model rats = experiment: Oral glucose tolerance test in obese model rats (high-fat diets) provided with pipecolic acid for 4 weeks; type: in vivo, Male SD rats; conditions: 0.2 or 0.4% added to high-fat diets for 4 weeks
Excerpt: (a) It is reported that obese model rats produced by giving high-fat diets express insulin resistance and develop hyperinsulinemia. It was examined whether the increase of the blood glucose and blood insulin concentration after oral injection of glucose to these obese model rats could be inhibited by providing them with D,L pipecolic acid for 4 weeks.
(b) Male SD rats of 6 weeks old were used to start the experiment.
(c) 48 rats were divided into 2 groups so that their fasting blood glucoses and body weights became the same. Normal diets or high-fat diets were given to them for 3 weeks (model production period). […] 0, 15, 30, 60, and 120 minutes after the administration, their blood glucose levels and blood insulin concentrations were measured. […]
(d) Farming rats: 48 (6 experimental sections×8) male SD rats of 5 weeks old were purchased from Charles River Laboratories Japan, Inc. and each was separately farmed in an animal room in a light-dark cycle of 12 hours (7:00 to 19:00) at room temperature of 25° C. […] Every Mondays, Wednesdays and Fridays during all periods starting from the model production period to the end of the test period, their body weights and amounts of food ingested were measured, and the feeds were added. […]

[3] = system: model mice with Type II diabetes; experiment: Autopsy: weights of epididymal fats and perinephric fats in model mice with Type II diabetes; type: in vivo, Male KK-Ay mice; conditions: KK-Ay mice, feed adding 0.8%, autopsy at tenth week
Method: as §3, §4

normal rats = experiment: Oral glucose tolerance test in normal rats provided with pipecolic acid feed for 4 weeks; type: in vivo, Male SD rats; conditions: normal SD rats
Excerpt: (a) It was examined whether the increase of the blood glucose after oral injection of glucose to normal rats could be inhibited by providing them with D,L pipecolic acid for 4 weeks.
(b) Male SD rats of 9 weeks old were used to start the experiment.
(c) 24 normal rats were divided into 3 groups (each group consisting of 8 rats) so that their fasting blood glucose and body weights became the same. Feeds adding 0, 0.2 or 0.4% D,L pipecolic acid were provided to each group for 4 weeks. Then, they were fasted for 17 hours, and 10% glucose solution was orally administered to them in its provided amount of 2 g/kg of body weight. At 0, 15, 30, 60, and 120 minutes after the administration, the blood glucose level and blood insulin concentration were measured.
(§5) (b) Preparation of feeds: D,L pipecolic acid (produced by Aldrich) was mixed in small portions with a commercial feed (CRF-1, produced by Oriental Yeast Co., Ltd.) and further mixed together for 5 minutes by using a universal mixer (produced by Dalton Corporation).
(c) Farming rats: 24 (3 experimental sections×8) male SD rats of 7 weeks old were purchased from Charles River Laboratories Japan, Inc. and each was separately farmed in an animal room in a light-dark cycle of 12 hours (7:00 to 19:00) at room temperature of 25° C. After habituation for two weeks, they were divided into 3 groups based on their body weights and fasting blood glucoses, and then the above feeds were provided for 4 weeks. Every Mondays, Wednesdays and Fridays during the period, their body weights and amounts of food ingested were measured, and the feeds were added. 4 weeks later, the oral glucose tolerance test was conducted.
(d) Oral glucose tolerance test: Fasting was started at 17:00 of the day before the test. At 10:00 of the test day, 10% glucose solution was orally administered to the rats in its provided amount of 2 g/kg of body weight. 0, 15, 30, 60, and 120 minutes after the administration, their blood was collected and their blood glucose levels and blood insulin concentrations were measured. The blood glucose levels were promptly measured after the blood collection by using a biochemical auto-analyzer for animals (Fuji DriChem 5500, produced by Fuji Photo Film Co., Ltd.). Further, the collected blood was centrifuged with a centrifuge (himac CF15D, produced by IlitachiKoki Co., Ltd) to take out the blood plasma, and the blood insulin concentrations were measured by using an insulin measurement kit (produced by Morinaga Institute of Biochemical Science, Inc.). FIG. 1A and FIG. 1B indicate the blood glucose transitions and the area under the blood glucose concentration time curve; and FIG. 1C indicates transitions of the blood insulin concentration.

[4] = system: model mice with Type II diabetes; experiment: Oral glucose tolerance test in model mice with Type II diabetes; type: in vivo, Male KK-Ay mice; conditions: KK-Ay mice; for increase of blood glucose in the oral glucose tolerance test: feed adding 0.4%
Excerpt: (a) It was examined whether D,L pipecolic acid has an effect of improving the pathology of model mice with Type II diabetes.
(b) Male KK-Ay mice, which are the model mice with Type II diabetes, were used to start the experiment.
as §3, with “fats. […]” for “fats.”
(c) Farming mice: 24 male KK-Ay mice of 5 weeks old were purchased from Clea Japan, Inc. and each was separately farmed in an animal room in a light-dark cycle of 12 hours (7:00 to 19:00) at room temperature of 25° C. Then, KK-Ay mice were divided into 3 groups based on their blood glucose levels and blood insulin concentrations measured when giving glucose. […] At the second and eighth weeks, the oral glucose tolerance test was conducted, and their blood glucoses and blood insulin concentrations after oral injection of glucose were measured. […] Then, at the tenth week, autopsy was conducted to the samples, and weights of epididymal fats and perinephric fats were measured to see effects of pipecolic acid on weights of visceral fats.
(d) Oral glucose tolerance test: Fasting was started at 20:00 of the day before the test. […] 0, 30, 60, 120, 180, and 240 minutes after the administration, their blood was collected and their blood glucose levels and blood insulin concentrations were measured. The blood glucose levels were promptly measured after the blood collection by using a biochemical auto-analyzer for animals (Fuji DriChem 5500, produced by Fuji Photo Film Co., Ltd.). […]

[5] = system: model mice with Type II diabetes; experiment: Measurement of lipids in the liver of model mice with Type II diabetes; type: in vivo, Male KK-Ay mice; conditions: KK-Ay mice
Method: as §1, §2
(c) 16 KK-Ay mice were divided into 2 groups based on their body weights. Feeds wherein 0 or 1.6% D,L pipecolic acid was added were provided to each group for 5 weeks. At the fifth week, they were fasted, and their blood was collected and their livers were extracted to measure their fasting blood triglyceride, fasting blood total cholesterol, fasting free fatty acids in the blood, total lipids in the liver, liver triglyceride and liver total cholesterol.
as §5
(c) Farming mice: 16 (2 experimental sections×8) male KK-Ay mice of 4 weeks old were purchased from Clea Japan, Inc. and each was separately farmed in an animal room in a light-dark cycle of 12 hours (7:00 to 19:00) at room temperature of 25° C. After naturalizing two weeks, they were divided into 2 groups based on their body weights, and the above feeds were provided to them for 5 weeks. Every Mondays, Wednesdays and Fridays during the period, their body weights and amounts of food ingested were measured, and the feeds were added. After 5 weeks passed, they were fasted for 17 hours, their blood was collected and their livers were extracted. The fasting blood triglyceride, fasting blood total cholesterol, fasting free fatty acids in the blood, total lipids in the liver, liver triglyceride and liver total cholesterol were measured by using those samples.
(e) Measurement of lipids in the liver: About 0.5 g of a liver sample is homogenized in 10 mL of chloroform/methanol (2:1) solution, and lipids are extracted overnight. […] 5 mL thereof is concentrated by drying with a centrifugal evaporator, and its weight measured becomes total lipids in the liver. […]

[6] = feed adding 0.4% for 4 weeks, glucose 2 g/kg oral
[7] = feed adding 1.6% for 5 weeks, average value

## O=C(O)C1CCCCN1 (centres unmarked) [D,L pipecolic acid]
[1]
  decrease of blood triglyceride as compared with the control group: about 20%
  decrease of free fatty acids in the blood as compared with the control group: about 20%
[2]
  decrease of the blood glucose after administering insulin: promoted
Obese model rats; after glucose 2 g/kg oral
  blood insulin concentration: decreased to around the same extent as that of the normal diet groups
Obese model rats; glucose 2 g/kg oral
  increase of the blood glucose after giving glucose: hardly inhibited
[3]
  weights of epididymal fats: decreased
  weights of perinephric fats: decreased
Normal rats; feed adding 0.2% for 4 weeks, glucose 2 g/kg oral
  increase of the blood glucose after oral injection of glucose: inhibited
Normal rats; feed adding 0.2 or 0.4% for 4 weeks, any group and any time period after glucose
  blood insulin concentration: did not change
Normal rats; [6]
  blood glucose of 30 and 60 minutes after the administration: decreased
  increase of the blood glucose after oral injection of glucose: inhibited
[4]; eighth week
  increase of blood glucose in the oral glucose tolerance test: no strong effect of inhibiting the increase of the blood glucose was confirmed
[4]; second week, compared with additive-free group
  increase of blood glucose in the oral glucose tolerance test: inhibited
[4]; feed adding 0.8%, until the eighth week
  increase of the blood glucose after injection of glucose: effect of inhibiting the increase of the blood glucose after injection of glucose was seen
[5]; feed adding 0 or 1.6% for 5 weeks
  total lipids in the liver: significantly correlate with the additive amount of pipecolic acid
[5]; [7]
  decrease of liver total cholesterol as compared with the control group: about 20%
  decrease of liver triglyceride as compared with the control group: about 20%
